This data set addresses ATP-dependent translocase ABCB1 (Homo sapiens, UniProt P08183). As to the kind of experiment: TP_TRANSPORTER: efflux in MDR1-expressing BeWo cells. In kind it is functional, cell-based.

ATP-dependent translocase ABCB1, sequence (P08183 whole entry): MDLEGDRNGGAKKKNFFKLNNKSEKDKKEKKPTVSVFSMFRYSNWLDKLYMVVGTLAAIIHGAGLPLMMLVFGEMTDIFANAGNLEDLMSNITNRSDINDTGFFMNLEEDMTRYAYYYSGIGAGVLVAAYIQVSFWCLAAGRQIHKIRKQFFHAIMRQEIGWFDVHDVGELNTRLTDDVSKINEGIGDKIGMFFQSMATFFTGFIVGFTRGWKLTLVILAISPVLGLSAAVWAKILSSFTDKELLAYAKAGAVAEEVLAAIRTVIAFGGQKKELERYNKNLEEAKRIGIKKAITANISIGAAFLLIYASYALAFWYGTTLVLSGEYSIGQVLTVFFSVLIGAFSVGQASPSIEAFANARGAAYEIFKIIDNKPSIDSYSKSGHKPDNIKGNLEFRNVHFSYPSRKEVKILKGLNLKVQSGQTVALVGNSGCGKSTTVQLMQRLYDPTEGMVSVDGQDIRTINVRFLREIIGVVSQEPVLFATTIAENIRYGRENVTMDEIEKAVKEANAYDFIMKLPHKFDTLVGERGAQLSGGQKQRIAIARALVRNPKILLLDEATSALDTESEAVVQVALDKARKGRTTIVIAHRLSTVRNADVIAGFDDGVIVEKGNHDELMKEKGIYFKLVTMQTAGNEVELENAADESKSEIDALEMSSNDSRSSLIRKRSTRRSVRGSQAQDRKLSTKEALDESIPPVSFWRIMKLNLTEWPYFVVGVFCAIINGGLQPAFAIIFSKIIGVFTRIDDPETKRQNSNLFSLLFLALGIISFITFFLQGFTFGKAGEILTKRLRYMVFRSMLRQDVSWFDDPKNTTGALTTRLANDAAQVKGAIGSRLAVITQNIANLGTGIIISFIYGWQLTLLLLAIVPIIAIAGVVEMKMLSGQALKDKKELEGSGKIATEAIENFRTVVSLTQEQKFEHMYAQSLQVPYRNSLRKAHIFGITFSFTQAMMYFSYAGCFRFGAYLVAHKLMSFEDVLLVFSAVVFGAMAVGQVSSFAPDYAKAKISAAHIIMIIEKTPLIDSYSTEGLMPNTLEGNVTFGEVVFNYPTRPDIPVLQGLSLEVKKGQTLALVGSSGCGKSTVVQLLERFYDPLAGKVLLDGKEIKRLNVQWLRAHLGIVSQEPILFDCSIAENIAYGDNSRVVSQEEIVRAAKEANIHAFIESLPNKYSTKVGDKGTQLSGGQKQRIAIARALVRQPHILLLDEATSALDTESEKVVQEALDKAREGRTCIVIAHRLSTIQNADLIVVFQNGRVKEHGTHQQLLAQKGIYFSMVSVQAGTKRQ

Consider `CC[C@]1(O)C[C@@H]2CN(CCc3c([nH]c4ccccc34)[C@@](C(=O)OC)(c3cc4c(cc3OC)N(C)[C@H]3[C@@](O)(C(=O)OC)[C@H](OC(C)=O)[C@]5(CC)C=CCN6CC[C@]43[C@@H]65)C2)C1` [VINBLASTINE], for which the Activity entry was “substrate [+]”.
